The first data set can be described thus: Solubility in toluene. Conditions: 20 mg mixed with toluene (1 mL).
On to `CCCCCCCCc1cc2cc3ccc4cc5cc(CCCCCCCC)n(C)c5cc4c3cc2n1C` [Compound 3], for which the Solubility (as a rule, the concentration that dissolves in the medium under given conditions) is reported as “A (Completely dissolved.)”.

`CCCCCCCCCCCCc1cc2cc3ccc4cc5cc(CCCCCCCCCCCC)sc5cc4c3cc2s1` [Compound 5]: the Solubility result was “A (Completely dissolved.)”. Same read-out and setting: then `CCCCCCCCc1ccc(-c2cc3cc4ccc5cc6cc(-c7ccc(CCCCCCCC)cc7)sc6cc5c4cc3s2)cc1` [Compound 11], with “A (Completely dissolved.)”; and `CCCCCCCCc1ccc(-c2cc3cc4ccc5cc6cc(-c7ccc(CCCCCCCC)s7)sc6cc5c4cc3s2)s1` [Compound 16], with “A (Completely dissolved.)”. Take `CCCCCCCCc1csc(-c2cc3cc4ccc5cc6cc(-c7cc(CCCCCCCC)cs7)sc6cc5c4cc3s2)c1` [Compound 24]: the Solubility entry is recorded as “A (Completely dissolved.)”.

Still in this data set, the particulars now being: organic solvent or mixture, thermodynamic from solid.
Consider `Cc1c(C)n(-c2ccccc2)c2c1ccc1c3ccc4c(C)c(C)n(-c5ccccc5)c4c3ccc12` [compound 1, reference compound], for which the Solubility was < 20 mg/mL.

On to `c1ccc(-n2c3ccccc3c3cc4ccc5cc6c7ccccc7n(-c7ccccc7)c6cc5c4cc32)cc1` [compound 2, reference compound], for which the Solubility was < 20 mg/mL.

These data come from US20160315271A1, “ORGANIC TRANSISTOR, COMPOUND, ORGANIC SEMICONDUCTOR MATERIAL FOR NON-LIGHT-EMITTING ORGANIC SEMICONDUCTOR DEVICE, MATERIAL FOR ORGANIC TRANSISTOR, COATING SOLUTION FOR NON-LIGHT-EMITTING ORGANIC SEMICONDUCTOR DEVICE, AND ORGANIC SEMICONDUCTOR FILM FOR NON-LIGHT-EMITTING ORGANIC SEMICONDUCTOR DEVICE” (FUJIFILM Corporation, priority 2014, published 2016).
